In article PMC3961306, “Comparison of the Cancer Gene Targeting and Biochemical Selectivities of All Targeted Kinase Inhibitors Approved for Clinical Use” (PLoS ONE, 2014):

Legend:
Test in all cases: Kinase profiling in a biochemical assay panel (mobility shift assays and ELISA), %-inhibition at 1 μM; selectivity entropy
[1] = target: panel of more than 300 wild-type and mutant kinases (313 kinase panel) (Homo sapiens, UniProt P07949)
[2] = target: panel of more than 300 wild-type and mutant kinases (313 kinase panel) (Homo sapiens, UniProt P04049)
[3] = target: panel of more than 300 wild-type and mutant kinases (313 kinase panel) (Homo sapiens, UniProt P07333)
[4] = target: T1, panel of more than 300 wild-type and mutant kinases (313 kinase panel) (Homo sapiens, UniProt P43403); conditions: kinase ZAP70; compound at 1 μM
T1 sequence (P43403 1-619): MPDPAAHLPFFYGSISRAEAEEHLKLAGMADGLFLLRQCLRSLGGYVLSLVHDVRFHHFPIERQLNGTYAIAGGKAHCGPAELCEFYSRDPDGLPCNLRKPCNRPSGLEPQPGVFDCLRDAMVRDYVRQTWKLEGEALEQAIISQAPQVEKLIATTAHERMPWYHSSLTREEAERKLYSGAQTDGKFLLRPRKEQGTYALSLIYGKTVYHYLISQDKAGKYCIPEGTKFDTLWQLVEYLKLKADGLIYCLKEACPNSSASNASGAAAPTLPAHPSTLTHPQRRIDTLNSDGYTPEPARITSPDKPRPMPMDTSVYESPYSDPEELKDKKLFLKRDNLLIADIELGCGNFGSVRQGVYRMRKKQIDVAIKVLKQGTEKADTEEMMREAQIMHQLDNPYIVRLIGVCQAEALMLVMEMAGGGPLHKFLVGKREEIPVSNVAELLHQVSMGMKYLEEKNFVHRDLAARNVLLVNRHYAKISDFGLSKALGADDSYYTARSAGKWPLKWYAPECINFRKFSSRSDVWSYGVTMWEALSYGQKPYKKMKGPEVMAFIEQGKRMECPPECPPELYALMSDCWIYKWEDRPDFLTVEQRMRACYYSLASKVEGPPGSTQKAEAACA

[5] = target: panel of more than 300 wild-type and mutant kinases (313 kinase panel) (Homo sapiens, UniProt P21802)
[6] = target: panel of more than 300 wild-type and mutant kinases (313 kinase panel) (Homo sapiens, UniProt P45984)
[7] = target: T2, panel of more than 300 wild-type and mutant kinases (313 kinase panel) (Homo sapiens, UniProt O00418)
T2 sequence (O00418 1-725): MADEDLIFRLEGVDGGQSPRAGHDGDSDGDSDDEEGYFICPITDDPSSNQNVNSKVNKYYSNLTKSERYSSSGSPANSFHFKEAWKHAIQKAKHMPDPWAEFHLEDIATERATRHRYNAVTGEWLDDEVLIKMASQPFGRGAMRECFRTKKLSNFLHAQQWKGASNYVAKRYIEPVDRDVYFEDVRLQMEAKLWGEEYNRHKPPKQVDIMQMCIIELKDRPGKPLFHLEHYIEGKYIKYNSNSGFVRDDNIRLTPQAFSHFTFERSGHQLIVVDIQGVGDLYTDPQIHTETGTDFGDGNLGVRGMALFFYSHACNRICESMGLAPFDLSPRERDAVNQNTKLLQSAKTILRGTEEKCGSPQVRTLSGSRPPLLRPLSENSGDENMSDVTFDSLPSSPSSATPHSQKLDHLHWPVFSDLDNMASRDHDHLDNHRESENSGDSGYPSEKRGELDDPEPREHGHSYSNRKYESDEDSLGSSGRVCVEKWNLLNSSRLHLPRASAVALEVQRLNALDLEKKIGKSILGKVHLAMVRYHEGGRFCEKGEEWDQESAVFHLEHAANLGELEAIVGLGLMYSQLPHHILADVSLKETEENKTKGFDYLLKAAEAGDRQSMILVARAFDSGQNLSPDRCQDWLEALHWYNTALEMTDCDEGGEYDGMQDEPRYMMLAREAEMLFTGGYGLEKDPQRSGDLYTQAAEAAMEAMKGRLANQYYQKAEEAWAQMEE

[8] = target: panel of more than 300 wild-type and mutant kinases (313 kinase panel) (Homo sapiens, UniProt Q9UM73, L1196M)
[9] = target: T3, panel of more than 300 wild-type and mutant kinases (313 kinase panel) (Homo sapiens, UniProt Q13043)
T3 sequence (Q13043 1-487): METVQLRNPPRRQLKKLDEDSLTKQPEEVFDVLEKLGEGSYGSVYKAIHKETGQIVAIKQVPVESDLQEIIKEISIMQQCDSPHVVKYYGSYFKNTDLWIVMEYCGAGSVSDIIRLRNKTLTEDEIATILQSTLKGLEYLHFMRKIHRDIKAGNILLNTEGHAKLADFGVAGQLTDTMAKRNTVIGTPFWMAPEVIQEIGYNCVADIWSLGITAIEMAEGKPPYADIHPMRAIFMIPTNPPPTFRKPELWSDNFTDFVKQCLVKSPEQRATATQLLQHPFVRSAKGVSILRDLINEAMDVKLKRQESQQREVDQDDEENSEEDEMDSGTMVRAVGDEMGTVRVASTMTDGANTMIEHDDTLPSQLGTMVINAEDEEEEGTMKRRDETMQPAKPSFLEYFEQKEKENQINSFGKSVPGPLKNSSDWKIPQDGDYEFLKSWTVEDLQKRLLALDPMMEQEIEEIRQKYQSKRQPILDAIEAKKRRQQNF

[10] = kinase ALK(L1196M), 1 μM compound

| SMILES | %-inhibition of RET ([1]; kinase RET, 1 μM) [%] | %-inhibition of RAF1 ([2]; kinase RAF1, 1 μM) [%] | %-inhibition of FMS ([3]; kinase FMS, compound at 1 μM) [%] | %-inhibition of ZAP70 [4] [%] | %-inhibition of FGFR2 ([5]; kinase FGFR2, compound at 1 μM) [%] | %-inhibition of JNK2 ([6]; kinase JNK2, compound at 1 μM) [%] | %-inhibition of EEF2K ([7]; kinase EEF2K, compound at 1 μM) [%] | %-inhibition, ALK(L1196M) [8, 10] [%] | %-inhibition of MST1 ([9]; kinase MST1, 1 μM) [%] | %-inhibition of RET ([1]; 1 µM) [%] | %-inhibition of RAF1 ([2]; 1 µM) [%] | %-inhibition of FMS ([3]; 1 µM) [%] | %-inhibition, ALK(L1196M) ([8]; 1 µM) [%] | %-inhibition of EEF2K ([7]; 1 µM) [%] | %-inhibition of MST1 ([9]; 1 µM) [%] | %-inhibition of FGFR2 ([5]; 1 µM) [%] | %-inhibition of JNK2 ([6]; 1 µM) [%] |
| --- | --- | --- | --- | --- | --- | --- | --- | --- | --- | --- | --- | --- | --- | --- | --- | --- | --- |
| CC(C)(C)c1nc(-c2cccc(NS(=O)(=O)c3c(F)cccc3F)c2F)c(-c2ccnc(N)n2)s1 [dabrafenib] | 49 | 99 | 15 | 3.47 | 4 | -0.947 | – | – | – | – | – | – | – | – | – | – | – |
| CCCS(=O)(=O)Nc1ccc(F)c(C(=O)c2c[nH]c3ncc(-c4ccc(Cl)cc4)cc23)c1F [vemurafenib] | 32 | 96 | 6 | 6 | 10 | -0.0632 | -5 | 3 | 51 | – | – | – | – | – | – | – | – |
| C[C@@H](Oc1cc(-c2cnn(C3CCNCC3)c2)cnc1N)c1c(Cl)ccc(F)c1Cl [crizotinib] | – | 11 | 92 | 21 | 27 | -2.59 | -4.6 | – | 83 | – | – | – | – | – | – | – | – |
| Cc1ccc(C(=O)Nc2ccc(CN3CCN(C)CC3)c(C(F)(F)F)c2)cc1C#Cc1cnc2cccnn12 [ponatinib] | 102 | 96 | 101 | 5 | 100 | – | -4 | – | – | – | – | – | – | – | – | – | – |
| O=S(=O)(c1cccc2cnccc12)N1CCCNCC1 [fasudil] | -5 | 8 | -3 | -2 | -1.76 | -5 | -3.43 | -4 | 10 | – | – | – | – | – | – | – | – |
| COc1cc(Nc2c(C#N)cnc3cc(OCCCN4CCN(C)CC4)c(OC)cc23)c(Cl)cc1Cl [bosutinib] | 95 | -3 | 93 | 76 | – | – | -7 | – | – | – | – | – | – | – | – | – | – |
| CO[C@H]1C[C@@H]2CC[C@@H](C)[C@@](O)(O2)C(=O)C(=O)N2CCCC[C@H]2C(=O)O[C@H]([C@H](C)C[C@@H]2CC[C@@H](OCCO)[C@H](OC)C2)CC(=O)[C@H](C)/C=C(\C)[C@@H](O)[C@@H](OC)C(=O)[C@H](C)C[C@H](C)/C=C/C=C/C=C/1C [everolimus] | -4 | 14 | -2.3 | -2 | -10 | -5.37 | -14 | -3.63 | -1.86 | – | – | – | – | – | – | – | – |
| Cc1ccc(Nc2nccc(N(C)c3ccc4c(C)n(C)nc4c3)n2)cc1S(N)(=O)=O [pazopanib] | – | 85 | – | 39 | 97 | – | -3 | 25 | 2 | – | – | – | – | – | – | – | – |
| CNC(=O)c1cc(Oc2ccc(NC(=O)Nc3ccc(Cl)c(C(F)(F)F)c3)c(F)c2)ccn1 [regorafenib] | – | 96 | 92 | -0.475 | 103 | 57 | -11 | 0.358 | -5.39 | 102 | – | – | – | – | – | – | – |
| CC(=O)Nc1cccc(-n2c(=O)n(C3CC3)c(=O)c3c(Nc4ccc(I)cc4F)n(C)c(=O)c(C)c32)c1 [trametinib] | -8 | 61 | -4 | -3 | -2.64 | -4.73 | -3.43 | -3.42 | -3.74 | – | – | – | – | – | – | – | – |
| CCN(CC)CCNC(=O)c1c(C)[nH]c(/C=C2\C(=O)Nc3ccc(F)cc32)c1C [sunitinib] | – | – | – | – | 97 | – | – | – | – | – | – | – | – | – | – | – | – |
| COc1cc2c(Nc3ccc(Br)cc3F)ncnc2cc1OCC1CCN(C)CC1 [vandetanib] | – | 41 | – | 4.47 | 103 | -4 | -10 | – | 3.16 | – | – | – | – | – | – | – | – |
| COc1cc2nccc(Oc3ccc(NC(=O)C4(C(=O)Nc5ccc(F)cc5)CC4)cc3)c2cc1OC [cabozantinib] | – | 48 | 54 | 0.856 | 32 | 4 | -4.74 | 4.25 | 6 | – | – | – | – | – | – | – | – |
| N#CC[C@H](C1CCCC1)n1cc(-c2ncnc3[nH]ccc23)cn1 [ruxolitinib] | – | – | – | 2.76 | 29 | -6 | -6 | – | 12 | – | 9 | 68 | 79 | – | – | – | – |
| C#Cc1cccc(Nc2ncnc3cc(OCCOC)c(OCCOC)cc23)c1 [erlotinib] | – | – | – | – | – | – | – | – | – | 70 | 0.534 | – | 18 | -0.225 | -1.06 | 58 | 13 |
